Measured values taken from ChEMBL document CHEMBL1128844, “The design, synthesis and evaluation of A,C,D-ring analogs of the fungal metabolite K-76 as complement inhibitors: a potential probe for the absolute stereochemistry at position 2” (1995).

Tests used:
Type in all cases: functional
Homo sapiens [1] = species: Homo sapiens; test: Ability to inhibit human complement-mediated erythrocyte lysis by alternate pathway
Homo sapiens [2] = species: Homo sapiens; test: Ability to inhibit human complement-mediated erythrocyte lysis by classical pathway
Homo sapiens [3] = species: Homo sapiens; test: Ability to inhibit human complement-mediated erythrocyte lysis by classical pathway at 2000 uM concentration

SMILES	IH50 (Homo sapiens [1]) [µM]	IH50 (Homo sapiens [2]) [µM]	inhibition at 2000 µM (Homo sapiens [3]) [%]
COc1ccc(C(=O)O)c2c1CC(C)(C1CC[C@](C)(O)C(O)C1)O2 (stereo not given in full)	>2550	1600	–
C=C(Cc1c(OC)ccc(C(=O)O)c1O)C1CC[C@](C)(O)C(O)C1 (stereo not given in full)	–	–	24
C[C@@H]1CCC2C(C)(C)[C@H](O)[C@H](O)C[C@]2(C)[C@@]12Cc1c(O)cc(C(=O)[O-])c(C=O)c1O2.[Na+] (stereo not given in full)	850	570	–
